Assay results from the supplement of paper PMC10307832.

Columns and labels:
Assay in all cases: relative viability (nuclei count vs DMSO), 5 days (fraction); higher = more cells survive
Trametinib + Linsitinib = compound: CC(=O)Nc1cccc(-n2c(=O)n(C3CC3)c(=O)c3c(Nc4ccc(I)cc4F)n(C)c(=O)c(C)c32)c1 [Trametinib] + C[C@]1(O)C[C@@H](c2nc(-c3ccc4ccc(-c5ccccc5)nc4c3)c3c(N)nccn32)C1 [Linsitinib] (partner 1 µM)
Outline: (§1)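 The day after seeding in 1536-well plates, lung cancer cell lines were treated by pin tool with a single drug, or with a fixed anchor-drug dose together with five library-drug doses (not always all listed) in √10 steps. After 5 days, a combined fix-and-stain solution (final 0.05% Triton X-100, 1% formaldehyde, 1 ug/ml Hoechst) was added. Nuclei counted on 4× images gave relative viability as treated counts over vehicle counts, reported as the median of duplicate plates.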

[1] = compound: CN1C=C(C2=CC=CC=C21)/C=C\3/C4=C(C=CC=N4)NC3=O + Nc1ncn([C@H]2C[C@H](O)[C@@H](CO)O2)c(=O)n1 [Decitabine] (partner 2 µM)
Outline: as §1

[2] = compound: CN1C=C(C2=CC=CC=C21)/C=C\3/C4=C(C=CC=N4)NC3=O + COc1cccc2cc(-c3nc([C@H]4CC[C@H](C(=O)O)CC4)n4ncnc(N)c34)[nH]c12 [OSI-027] (partner 0.5 µM)
Outline: as §1

Trametinib + Pictilisib = compound: CC(=O)Nc1cccc(-n2c(=O)n(C3CC3)c(=O)c3c(Nc4ccc(I)cc4F)n(C)c(=O)c(C)c32)c1 [Trametinib] + CS(=O)(=O)N1CCN(Cc2cc3nc(-c4cccc5[nH]ncc45)nc(N4CCOCC4)c3s2)CC1 [Pictilisib] (partner 1 µM)
Outline: as §1

Row | Cell Line | relative viability (Trametinib + Linsitinib; first compound 0.0025 µM) | relative viability (Trametinib + Linsitinib; first compound 0.007906 µM) | relative viability (Trametinib + Linsitinib; first compound 0.025 µM) | relative viability (Trametinib + Linsitinib; first compound 0.07906 µM) | relative viability (Trametinib + Linsitinib; first compound 0.25 µM) | relative viability ([1]; first compound 0.02 µM) | relative viability ([1]; first compound 0.06325 µM) | relative viability ([1]; first compound 0.2 µM) | relative viability ([1]; first compound 0.6325 µM) | relative viability ([1]; first compound 2 µM) | relative viability ([2]; first compound 0.02 µM) | relative viability ([2]; first compound 0.06325 µM) | relative viability ([2]; first compound 0.2 µM) | relative viability ([2]; first compound 0.6325 µM) | relative viability ([2]; first compound 2 µM) | relative viability (Trametinib + Pictilisib; first compound 0.0025 µM) | relative viability (Trametinib + Pictilisib; first compound 0.007906 µM) | relative viability (Trametinib + Pictilisib; first compound 0.025 µM) | relative viability (Trametinib + Pictilisib; first compound 0.07906 µM) | relative viability (Trametinib + Pictilisib; first compound 0.25 µM)
1 | NCI-H1355 | 0.737 | 0.605 | 0.375 | 0.433 | 0.352 | 0.342 | 0.375 | 0.374 | 0.317 | 0.324 | 0.371 | 0.348 | 0.3 | 0.345 | 0.362 | 0.339 | 0.313 | 0.199 | 0.228 | 0.214
2 | NCI-H727 | 0.21 | 0.164 | 0.104 | 0.144 | 0.155 | 0.935 | 0.886 | 0.669 | 0.979 | 0.829 | 0.57 | 0.553 | 0.408 | 0.657 | 0.58 | 0.333 | 0.207 | 0.176 | 0.149 | 0.25
3 | NCI-H1975 | 0.93 | 0.897 | 0.603 | 0.384 | 0.38 | 0.396 | 0.277 | 0.356 | 0.363 | 0.347 | 0.698 | 0.739 | 0.828 | 0.646 | 0.449 | 0.252 | 0.199 | 0.137 | 0.162 | 0.179
4 | NCI-H460 | 0.656 | 0.265 | 0.153 | 0.0822 | 0.0212 | 0.487 | 0.44 | 0.414 | 0.445 | 0.483 | 0.81 | 0.726 | 0.649 | 0.63 | 0.676 | 0.302 | 0.23 | 0.156 | 0.125 | 0.0758
5 | EPLC-272H | 1.23 | 0.89 | 0.471 | 0.659 | 0.489 | 0.382 | 0.345 |  | 0.333 | 0.336 | 0.219 | 0.29 | 0.269 |  | 0.309 | 0.268 | 0.221 | 0.175 | 0.174 | 0.0951
6 | SK-LU-1 | 1.18 | 0.965 | 0.888 | 0.778 | 0.443 | 0.484 | 0.499 | 0.578 | 0.617 | 0.6 | 0.273 | 0.284 | 0.333 | 0.354 | 0.382 | 0.535 | 0.399 | 0.251 | 0.278 | 0.256
7 | NCI-H322M | 0.896 | 0.664 | 0.601 | 0.519 | 0.459 | 0.683 | 0.708 | 0.649 | 0.648 | 0.686 | 0.516 | 0.487 | 0.4 | 0.587 | 0.567 | 0.522 | 0.486 | 0.35 | 0.344 | 0.336
8 | NCI-H2405 | 0.577 | 0.486 | 0.382 | 0.362 | 0.349 | 0.739 | 0.676 | 0.653 | 0.725 | 0.734 | 0.703 | 0.611 | 0.62 | 0.657 | 0.711 | 0.298 | 0.251 | 0.257 | 0.204 | 0.236
9 | NCI-H1666 | 0.56 | 0.524 | 0.426 | 0.571 | 0.388 | 0.7 | 0.701 | 0.591 | 0.764 | 0.658 | 0.853 | 0.914 | 0.842 | 0.729 | 0.818 | 0.267 | 0.371 | 0.276 | 0.255 | 0.244
10 | NCI-H358 | 0.587 | 0.438 | 0.399 | 0.332 | 0.28 | 0.233 | 0.186 | 0.195 | 0.204 | 0.246 | 0.756 | 0.67 | 0.768 | 0.851 | 0.689 | 0.311 | 0.328 | 0.233 | 0.22 | 0.363
11 | H3255 | 1.02 | 0.822 | 0.795 | 0.855 | 0.575 | 0.796 |  | 0.57 | 0.563 | 0.491 | 0.676 | 0.627 | 0.532 | 0.621 | 0.53 | 0.436 | 0.344 | 0.334 | 0.237 | 0.206
12 | LCLC-103H | 0.968 | 0.897 | 0.746 | 0.904 | 0.933 | 0.724 | 0.732 | 0.684 | 0.696 | 0.732 | 0.402 | 0.416 | 0.494 | 0.509 | 0.461 | 0.641 | 0.547 | 0.451 | 0.458 | 0.406
13 | NCI-H2347 | 0.93 | 0.653 | 0.404 | 0.431 | 0.445 | 0.563 | 0.552 | 0.588 | 0.582 | 0.608 |  | 0.347 | 0.483 | 0.552 | 0.378 | 0.452 | 0.301 | 0.221 | 0.229 | 0.272
14 | LK-2 | 0.553 | 0.44 | 0.604 | 0.304 | 0.469 | 0.225 | 0.24 | 0.192 | 0.275 | 0.375 |  |  | 0.184 | 0.195 | 0.211 | 0.457 | 0.571 | 0.54 | 0.575 | 0.294
15 | HCC-15 | 0.694 | 0.447 | 0.294 | 0.239 | 0.186 | 0.562 | 0.566 | 0.656 | 0.579 | 0.814 | 0.656 | 0.568 | 0.582 | 0.651 | 0.552 | 0.596 | 0.232 | 0.175 | 0.158 | 0.182
16 | SW 1573 | 0.847 | 0.602 | 0.654 | 0.487 | 0.449 | 0.477 | 0.498 | 0.514 | 0.542 | 0.458 | 0.737 | 0.557 | 0.559 | 0.54 | 0.551 | 0.357 | 0.34 | 0.339 | 0.308 | 0.214
17 | NCI-H838 | 0.912 | 0.867 |  | 0.754 | 0.528 | 0.431 | 0.447 | 0.446 | 0.433 | 0.449 | 0.335 | 0.326 | 0.354 | 0.366 | 0.319 | 0.351 | 0.415 |  | 0.319 | 0.281
18 | RERF-LC-KJ | 0.862 | 0.792 | 0.751 | 0.791 | 0.793 | 0.736 | 0.633 | 0.708 | 0.666 | 0.687 | 0.551 | 0.574 | 0.493 | 0.554 | 0.545 | 0.417 | 0.449 | 0.503 | 0.494 | 0.458
19 | NCI-H441 | 0.553 | 0.471 | 0.293 | 0.253 | 0.21 | 0.225 | 0.247 | 0.23 | 0.229 | 0.497 | 0.557 | 0.646 | 0.739 | 0.607 | 0.459 | 0.44 | 0.306 | 0.234 | 0.214 | 0.163
20 | PC-14 | 0.996 | 0.89 | 0.787 | 0.59 | 0.434 | 0.218 | 0.209 | 0.178 | 0.23 | 0.226 | 0.95 | 0.819 | 0.751 | 0.84 | 0.785 | 0.667 | 0.546 | 0.24 | 0.141 | 0.107
21 | NCI-H2009 | 0.916 | 0.717 | 0.483 | 0.472 | 0.334 | 0.303 | 0.355 | 0.352 | 0.382 | 0.417 | 0.684 | 0.616 | 0.668 | 0.688 | 0.642 | 0.502 | 0.366 | 0.148 | 0.206 | 0.208
22 | NCI-H1395 | 0.981 | 1.15 | 1.14 | 1.02 | 0.673 | 0.642 | 0.702 | 0.686 | 0.699 | 0.688 | 0.604 | 0.613 | 0.445 | 0.669 | 0.601 | 0.607 | 0.631 | 0.576 | 0.453 | 0.65
23 | NCI-H1437 | 0.996 | 0.412 | 0.294 | 0.209 | 0.176 | 0.593 | 0.591 | 0.527 | 0.664 | 0.668 | 0.862 | 0.897 | 0.793 | 0.927 | 1.01 | 0.151 | 0.144 | 0.113 | 0.129 | 0.148
24 | NCI-H647 | 1.07 | 0.803 | 0.835 | 0.933 | 0.58 | 0.391 | 0.314 | 0.384 | 0.327 | 0.349 | 0.719 | 0.616 | 0.478 | 0.655 | 0.557 | 0.348 | 0.301 | 0.235 | 0.206 | 0.127
25 | NCI-H1793 | 0.806 | 0.523 | 0.309 | 0.302 | 0.296 | 0.34 | 0.521 | 0.493 | 0.59 | 0.499 | 0.283 | 0.252 | 0.248 | 0.244 | 0.197 | 0.4 | 0.314 | 0.169 | 0.307 | 0.232
26 | SK-MES-1 | 1.02 | 0.938 | 0.779 | 0.505 | 0.338 | 0.37 | 0.336 | 0.369 | 0.38 | 0.369 | 0.58 | 0.628 | 0.582 | 0.608 | 0.446 | 0.282 | 0.223 | 0.214 | 0.171 | 0.187
27 | NCI-H2087 | 0.718 | 0.416 | 0.377 | 0.311 | 0.315 | 0.227 | 0.239 | 0.255 | 0.326 | 0.363 | 0.75 | 0.403 | 0.47 | 0.642 | 0.587 | 0.846 | 0.344 | 0.26 | 0.237 | 0.382
